Patent US20060018921A1, “Histone deacetylase inhibitors and cognitive applications” (priority 2004, published 2006)
Entries after “also recorded” stand apart in the source; their conditions may differ.

Tests used:
[1] = test system: ERK2; test: P-ERK2 western blot of area CA1 after contextual fear conditioning; conditions: MK-801 300 μg/kg 1 h prior to training; SL327 100 mg/kg immediately after training
[2] = test system: histone H3 (Lys14); test: Acetylation of histone H3 in area CA1 after contextual fear conditioning; conditions: injection of MK-801 1 h prior to or SL327 immediately after training
[3] = Contextual fear conditioning, freezing behavior; conditions: for spontaneous freezing behavior on re-exposure 24 h after mock training, no shock (FIG. 11D): sodium butyrate 1.2 g/kg vs saline; for spontaneous freezing behavior during mock training, no shock (FIG. 11C): sodium butyrate 1.2 g/kg, 3 min in training chamber
[4] = test system: histone H4 (Lys5/Lys8/Lys12/Lys16); test: Acetylation of histone H4 in area CA1 after contextual fear conditioning; conditions: injection of MK-801 1 h prior to or SL327 immediately after training
[5] = test system: survival motor neuron (SMN) protein; conditions: SMA lymphoid cell lines; Chang et al. (2001); cited from earlier work
[6] = test system: SMA-like mice; conditions: Chang et al. (2001), cited from earlier work
[7] = Passive avoidance task; type: in vivo, Sprague-Dawley rats
Protocol: The effect of the exemplary histone deacetylase inhibitor sodium butyrate (NaB) on the exemplary hippocampus-dependent long-term memory paradigm of passive avoidance was determined. In the passive avoidance task, animals associate a dark chamber with an aversive stimulus. In the passive avoidance task, animals are placed into the lighted side of a 2-chamber shuttle box (Med Associates). An open doorway in the middle of the shuttle box leads to a dark side. Animals are allowed to move into the dark side of the chamber, upon which time the door is closed and animals are allowed to explore the dark side for 5 sec prior to receiving a brief electric shock (2 sec, 0.5 mA). Animals are given an additional 5 sec of exploration time prior to removal from the shuttle box. Latency to enter the dark side of the shuttle box is recorded for all experimental animals during the training day. Passive avoidance memory is assessed by measuring latency to enter the dark side of the shuttle box, minus the latency to enter the dark side on the training day. Passive avoidance memory was only tested once from each animal to eliminate the effect of extinction. NaB (1.2 g/kg) was administered 45 min prior to passive avoidance training.

[8] = test system: histone H3 (Lys14); test: Acetylation of histone H3, acute hippocampal slices, area CA1; conditions: slices exposed to NaB for 40 min; data not shown
[9] = Novel object recognition task; type: in vivo, Sprague-Dawley rats
Protocol: The effect of the exemplary histone deacetylase inhibitor sodium butyrate (NaB) on the exemplary hippocampus-dependent long-term memory paradigm of novel object recognition was determined. In the novel object task, an animal's ability to discriminate between a familiar and a novel object is tested. Novel object recognition training is performed over 4 consecutive days. During each day, animals are placed individually into a small holding cage prior to introduction to the training arena (44 cm^2). The first day consists of habituating animals to the training arena for 10 min. During the second and third days, the training arena has 8 small Duplo® Blocks (Lego®, 2 each: yellow, blue, red, green) placed 2 cm from the edge of the arena. During days 2 and 3, animals are simultaneously habituated to the Duplo blocks and tested for color and arena-position biases. On day 4, 2 distinct novel objects made from Duplo blocks (approx. 10×5×5 cm) are placed in opposite corners of the arena, 2 cm from the walls. Animals are allowed to explore the objects for 10 min. During each session in the arena, movement of the animal will be tracked by an automated video-based system (Limelight) and the arena and Duplo blocks are thoroughly rinsed with 10% EtOH to remove any scent cues left by subjects. During the final training session on day 4, exploration time of each object is tracked. […] Novel object recognition is assessed by calculating preference indices ([TimeNovel−TimeFamilar]) after exposure of animals to one familiar, and one novel object. Animals received an injection of either saline or NaB 45 min before the training session on day 4.

[10] = test system: Schaffer-collateral synapses; test: Slice electrophysiology, basal synaptic transmission (baseline fEPSP, input/output, paired-pulse facilitation, tetanus depolarization); type: cell-based, Sprague-Dawley rats; conditions: sodium butyrate for 20 min vs vehicle
[11] = test system: histone H4 (Lys5/Lys8/Lys12/Lys16); test: Acetylation of histone H4, acute hippocampal slices, area CA1; conditions: slices exposed to NaB for 40 min; data not shown
[12] = NaB 1.2 g/kg 45 min prior to training
[13] = NaB 45 min before the training session on day 4, vs saline
[14] = sodium butyrate 1.2 g/kg 1 h prior to 1-shock contextual fear conditioning, vs saline
[15] = sodium butyrate 1.2 g/kg 1 h prior to 1-shock contextual fear conditioning, vs saline, listed as NaB

C[C@]12N[C@H](Cc3ccccc31)c1ccccc12 [MK-801]
increase in P-ERK2 in area CA1 1 h after fear conditioning [1]: blocked the increase in P-ERK2; also recorded: inhibited the increase in P-ERK2 | increase in acetylation of histone H3 in area CA1 1 h after fear conditioning [2]: inhibited the increase in H3 acetylation; also recorded: No change in H3 acetylation | freezing behavior 24 h after contextual fear conditioning (contextual fear memory) ([3]; MK-801 300 μg/kg 1 h prior to training, vs saline): blocked; also recorded: less freezing behavior than animals injected with saline | histone H4 acetylation in area CA1 after fear conditioning [4]: no effect on histone H4 acetylation

CCCC(=O)[O-].[Na+] [sodium butyrate]
amount of exon 7-containing SMN protein [5]: effective at increasing the amount of exon 7-containing survival motor neuron (SMN) protein | expression of SMN protein in spinal cord motor neurons ([6]; SMA-like mice): increased expression of SMN protein in spinal cord motor neurons | symptoms ([6]; SMA-like mice): improved symptoms | birth rate of severe types of SMA-like mice ([6]; heterozygous knock-out transgenic SMA-like mice bred): decreased the birth rate of severe types of SMA-like mice | passive avoidance memory (latency to enter dark side) 1 day after training [7, 12]: did not affect long-term passive avoidance memory | passive avoidance memory (latency to enter dark side) 7 days after training [7, 12]: significant affects on passive avoidance memory | passive avoidance memory (latency to enter dark side) 14 days after training [7, 12]: significant affects on passive avoidance memory | long-term passive avoidance memory ([7]; NaB 45 min prior to passive avoidance training, vs saline): enhances long-term passive avoidance memory | acetylation of histone H3 [8]: elevated | novel object recognition (preference index) 1 day after training [9, 13]: performed significantly better than animals that received saline | novel object recognition (preference index) 7 days after training [9, 13]: performed significantly better than animals that received saline | novel object recognition (preference index) day 14 [9, 13]: A trend for enhanced performance | long-term novel object recognition memory ([9]; NaB 45 min prior to novel object training, vs saline): enhances long-term novel object recognition memory | freezing behavior during training (FIG. 11A) [3, 14]: unaffected | freezing behavior during training (FIG. 11E, short-term memory study) [3, 14]: unaffected | freezing behavior on re-exposure to the training chamber 24 h after training (FIG. 11B) [3, 14]: significantly more freezing behavior than animals injected with saline | freezing behavior during training (FIG. 11A) [3, 15]: no affect on freezing behavior observed during training | freezing behavior during training (FIG. 11E, short-term memory study) [3, 15]: no significant differences were seen in freezing behavior | freezing behavior on re-exposure 1 h after training, short-term memory (FIG. 11F) [3, 15]: no effect on freezing behavior | spontaneous freezing behavior on re-exposure 24 h after mock training, no shock (FIG. 11D) [3]: no affect on spontaneous freezing behavior | spontaneous freezing behavior on re-exposure 24 h after mock training, no shock (FIG. 11D) ([3]; listed as NaB): no significant differences in the amount of freezing behavior | spontaneous freezing behavior during mock training, no shock (FIG. 11C) ([3]; vs saline): unaffected | spontaneous freezing behavior during mock training, no shock (FIG. 11C) ([3]; vs saline, listed as NaB): no acute effects on freezing behavior | input/output relationships [10]: No significant differences | paired-pulse facilitation [10]: unaffected | input/output relationships ([10]; listed as NaB): no significant affect on input/output relationships | paired-pulse facilitation ([10]; listed as NaB): no significant affect | acetylation of histone H4 [11]: elevated
